From the NIST ThermoML archive (doi:10.1021/je801009z)
Where “and” joins values, the source holds several entries; their conditions need not be identical. Equal entries are not always repeated. ± gives the expanded uncertainty stated by the source.

Conditions: Vibrating tube method

mass density (308 K, 20000 kPa, Fluid (supercritical or subcritical phases)) | mass density (313 K, 10000 kPa, Fluid (supercritical or subcritical phases)) | mass density (313 K, 15000 kPa, Fluid (supercritical or subcritical phases)) | mass density (313 K, 20000 kPa, Fluid (supercritical or subcritical phases)) | mass density (313 K, 25000 kPa, Fluid (supercritical or subcritical phases)) | mass density (313 K, 36000 kPa, Fluid (supercritical or subcritical phases)) | mass density (318 K, 20000 kPa, Fluid (supercritical or subcritical phases)) | mass density (323 K, 20000 kPa, Fluid (supercritical or subcritical phases)) | mass density (328 K, 20000 kPa, Fluid (supercritical or subcritical phases)) | mass density (333 K, 20000 kPa, Fluid (supercritical or subcritical phases)) | Structure (SMILES) | mass density (288 K, 19600 kPa, Liquid) | mass density (298 K, 19600 kPa, Liquid) | mass density (308 K, 5000 kPa, Liquid) | mass density (308 K, 10100 kPa, Liquid) | mass density (308 K, 15400 kPa, Liquid) | mass density (308 K, 19600 kPa, Liquid) | mass density (308 K, 23700 kPa, Liquid) | mass density (318 K, 19600 kPa, Liquid) | mass density (328 K, 19600 kPa, Liquid)
 |  |  |  |  |  |  |  |  |  | FCC(F)(F)F [1,1,1,2-tetrafluoroethane] | 1290 ± 120 kg/m3 | 1270 ± 60 kg/m3 | 1150 ± 100 kg/m3 | 1180 ± 60 kg/m3 | 1210 ± 10 kg/m3 | 1240 ± 10 kg/m3 and 1240 ± 60 kg/m3 | 1260 ± 100 kg/m3 | 1210 ± 60 kg/m3 | 1180 ± 120 kg/m3
870 ± 120 kg/m3 | 570 kg/m3 | 780 ± 20 kg/m3 | 850 ± 80 kg/m3 and 830 ± 60 kg/m3 | 890 ± 180 kg/m3 | 900 ± 200 kg/m3 | 820 ± 20 kg/m3 | 790 ± 20 kg/m3 | 760 ± 80 kg/m3 | 730 ± 140 kg/m3 | O=C=O [carbon dioxide] |  |  |  |  |  |  |  |  | 
